In ChEMBL document CHEMBL1795262, “Pyrazole-based sulfonamide and sulfamides as potent inhibitors of mammalian 15-lipoxygenase” (Bioorg Med Chem Lett, 2011):
Converted amounts (≈) assume the structure as drawn.

What was measured:
[1] = target: T1, Polyunsaturated fatty acid lipoxygenase ALOX15 (Oryctolagus cuniculus, UniProt P12530); test: Inhibition of rabbit 15-LO using linoleic acid by standard colorimetric assay
T1 sequence (P12530 whole entry): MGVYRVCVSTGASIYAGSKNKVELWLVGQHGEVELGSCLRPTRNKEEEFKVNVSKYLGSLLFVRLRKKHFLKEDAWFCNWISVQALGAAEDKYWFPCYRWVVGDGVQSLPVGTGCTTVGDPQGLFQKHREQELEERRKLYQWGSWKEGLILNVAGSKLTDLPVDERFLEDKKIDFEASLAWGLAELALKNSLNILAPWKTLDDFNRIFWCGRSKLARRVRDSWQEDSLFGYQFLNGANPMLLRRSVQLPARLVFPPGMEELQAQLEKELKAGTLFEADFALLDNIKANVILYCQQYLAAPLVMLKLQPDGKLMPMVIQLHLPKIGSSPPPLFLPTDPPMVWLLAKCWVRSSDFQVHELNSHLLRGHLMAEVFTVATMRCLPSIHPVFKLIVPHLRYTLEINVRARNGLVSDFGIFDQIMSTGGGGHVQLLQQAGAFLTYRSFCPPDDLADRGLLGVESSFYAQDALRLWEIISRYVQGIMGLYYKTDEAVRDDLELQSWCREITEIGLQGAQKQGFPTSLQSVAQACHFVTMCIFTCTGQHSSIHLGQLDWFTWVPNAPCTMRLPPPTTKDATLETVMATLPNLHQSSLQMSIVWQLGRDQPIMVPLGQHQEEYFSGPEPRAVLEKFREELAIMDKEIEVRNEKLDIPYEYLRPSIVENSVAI

[2] = target: T1, Polyunsaturated fatty acid lipoxygenase ALOX15; test: Inhibition of rabbit 15-LO using arachidonic acid by standard colorimetric assay
[3] = target: T2, Polyunsaturated fatty acid 5-lipoxygenase (Homo sapiens) (UniProt P09917); test: Inhibition of 5-LO at 10 uM
T2 sequence (whole entry): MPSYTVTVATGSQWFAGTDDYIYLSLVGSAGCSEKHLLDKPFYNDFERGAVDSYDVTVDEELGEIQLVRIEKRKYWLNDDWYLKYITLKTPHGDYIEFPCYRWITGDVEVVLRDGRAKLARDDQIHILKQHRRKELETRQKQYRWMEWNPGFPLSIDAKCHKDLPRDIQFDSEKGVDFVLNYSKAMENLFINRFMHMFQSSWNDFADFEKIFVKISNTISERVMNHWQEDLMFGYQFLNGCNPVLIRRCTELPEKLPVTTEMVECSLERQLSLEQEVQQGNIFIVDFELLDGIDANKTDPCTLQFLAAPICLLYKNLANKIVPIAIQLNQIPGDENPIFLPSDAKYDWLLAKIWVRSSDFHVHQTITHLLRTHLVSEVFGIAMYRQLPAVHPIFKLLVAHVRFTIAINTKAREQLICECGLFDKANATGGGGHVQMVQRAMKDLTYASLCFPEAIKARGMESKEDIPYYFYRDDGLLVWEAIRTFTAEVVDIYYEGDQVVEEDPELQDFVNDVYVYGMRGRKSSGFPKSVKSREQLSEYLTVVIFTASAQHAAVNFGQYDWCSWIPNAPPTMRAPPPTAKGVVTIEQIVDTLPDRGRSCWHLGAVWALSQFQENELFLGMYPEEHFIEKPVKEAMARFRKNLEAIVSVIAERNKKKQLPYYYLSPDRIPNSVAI

[4] = target: T3, Polyunsaturated fatty acid lipoxygenase ALOX12 (Homo sapiens) (UniProt P18054); test: Inhibition of 12-LO at 10 uM
T3 sequence (whole entry): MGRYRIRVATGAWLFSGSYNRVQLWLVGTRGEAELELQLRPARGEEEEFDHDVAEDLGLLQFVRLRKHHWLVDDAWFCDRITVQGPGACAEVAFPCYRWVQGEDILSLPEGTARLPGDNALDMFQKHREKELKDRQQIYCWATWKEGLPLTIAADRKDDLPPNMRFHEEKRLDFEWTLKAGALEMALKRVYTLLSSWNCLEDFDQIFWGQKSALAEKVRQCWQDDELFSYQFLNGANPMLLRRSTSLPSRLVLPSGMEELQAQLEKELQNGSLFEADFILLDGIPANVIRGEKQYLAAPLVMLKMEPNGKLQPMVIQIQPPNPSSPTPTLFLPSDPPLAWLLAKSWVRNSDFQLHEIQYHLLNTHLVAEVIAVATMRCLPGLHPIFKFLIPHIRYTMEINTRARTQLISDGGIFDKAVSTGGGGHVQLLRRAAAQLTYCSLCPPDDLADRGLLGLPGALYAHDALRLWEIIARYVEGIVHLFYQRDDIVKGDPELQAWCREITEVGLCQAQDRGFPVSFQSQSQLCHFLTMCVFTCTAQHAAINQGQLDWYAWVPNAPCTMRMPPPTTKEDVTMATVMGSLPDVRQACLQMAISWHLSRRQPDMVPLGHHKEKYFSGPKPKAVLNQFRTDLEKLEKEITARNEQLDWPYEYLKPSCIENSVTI

Oryctolagus cuniculus [5] = organism: Oryctolagus cuniculus; test: Inhibition of 15-HETE production in New Zealand White rabbit whole blood at 10 uM by RP-HPLC; type: functional
[6] = Aqueous solubility of the compound in water at pH 6.5
[7] = target: T4, Polyunsaturated fatty acid lipoxygenase ALOX15 (Homo sapiens) (UniProt P16050); test: Inhibition of human 15-LO expressed in CHO cells at 3 uM by cell-based assay
T4 sequence (whole entry): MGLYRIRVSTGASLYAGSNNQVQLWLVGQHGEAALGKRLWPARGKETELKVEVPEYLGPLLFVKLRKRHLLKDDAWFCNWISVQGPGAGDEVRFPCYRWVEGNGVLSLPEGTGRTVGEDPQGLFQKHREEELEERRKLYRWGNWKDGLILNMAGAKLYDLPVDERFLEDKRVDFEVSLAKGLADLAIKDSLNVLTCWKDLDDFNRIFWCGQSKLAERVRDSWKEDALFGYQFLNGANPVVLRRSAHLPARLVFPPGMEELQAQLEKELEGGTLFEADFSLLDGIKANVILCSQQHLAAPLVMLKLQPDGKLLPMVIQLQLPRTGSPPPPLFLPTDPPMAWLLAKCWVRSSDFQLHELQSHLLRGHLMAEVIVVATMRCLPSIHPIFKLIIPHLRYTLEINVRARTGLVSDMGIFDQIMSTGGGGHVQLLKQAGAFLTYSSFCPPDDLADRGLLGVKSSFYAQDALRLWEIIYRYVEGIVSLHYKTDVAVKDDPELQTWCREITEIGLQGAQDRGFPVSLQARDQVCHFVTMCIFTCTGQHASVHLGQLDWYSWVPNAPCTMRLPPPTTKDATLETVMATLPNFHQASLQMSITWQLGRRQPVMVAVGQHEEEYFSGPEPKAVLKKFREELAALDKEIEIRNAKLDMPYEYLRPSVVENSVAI

[8] = target: T4, Polyunsaturated fatty acid lipoxygenase ALOX15 (Homo sapiens); test: Inhibition of human 15-LO expressed in CHO cells at 1 uM by cell-based assay
Oryctolagus cuniculus [9] = organism: Oryctolagus cuniculus; test: Inhibition of 15-HETE production in New Zealand White rabbit whole blood at 3 uM by RP-HPLC; type: functional
Oryctolagus cuniculus [10] = organism: Oryctolagus cuniculus; test: Inhibition of 15-HETE production in New Zealand White rabbit whole blood at 1 uM by RP-HPLC; type: functional
[11] = target: T5, Polyunsaturated fatty acid 5-lipoxygenase (Homo sapiens, UniProt P09917); test: Inhibition of 5-LO
T5 sequence (P09917 whole entry): T2 sequence (whole entry)

SMILES | IC50 [1] [nM] | IC50 [2] [nM] | further results
CCCCCc1ccc(S(=O)(=O)NCCc2c(-c3ccccc3)n[nH]c2-c2ccccc2)cc1 | 35 | 313 | 
CCN([C@@H]1CCN([C@H](C)c2ccccc2)C1)S(=O)(=O)NCCc1c(-c2cccs2)n[nH]c1-c1cnccn1 | 5.3 | 8.2 | inhibition [3]: 68%; inhibition [4]: 38%; inhibition at 10 µM (Oryctolagus cuniculus [5]): 55%; solubility [6]: 71 µg/mL (≈ 129 µM); inhibition [7]: 61%
CCCCCc1ccc(S(=O)(=O)NCCc2c(-c3cccs3)n[nH]c2-c2cccc(OC)c2)cc1 | 9 | 53 | 
CCCCCc1ccc(S(=O)(=O)NCCc2c(-c3ccccc3)n[nH]c2Cc2ccccc2)cc1 | 158 | 918 | 
CCCCCc1ccc(S(=O)(=O)NCCc2c(-c3ccc(OC)cc3)n[nH]c2C)cc1 | 3980 |  | 
CCCCCc1ccc(S(=O)(=O)NCCc2c(-c3ccccc3OC)n[nH]c2-c2ccccc2)cc1 | 1220 |  | 
CCCCCc1ccc(S(=O)(=O)NCCc2c(-c3ccccc3)n[nH]c2-c2cccc(OC)c2)cc1 | 68 | 524 | 
Cc1cc(-c2[nH]nc(-c3cccs3)c2CCNS(=O)(=O)N(C)[C@@H]2CCN(Cc3ccccc3)C2)no1 | 4.2 | 15 | inhibition at 10 µM (Oryctolagus cuniculus [5]): 71%
CCCCCc1ccc(S(=O)(=O)NCCc2c(-c3cccs3)n[nH]c2-c2cc(C)on2)cc1 | 10 | 36 | 
CCCCCc1ccc(S(=O)(=O)NCCc2c(-c3cccs3)n[nH]c2-c2ccccc2)cc1 | 11 | 28 | 
CCCCCc1ccc(S(=O)(=O)NCCc2c(-c3ccccc3)n[nH]c2-c2ccc(OC)cc2)cc1 | 150 | 1560 | 
CN([C@@H]1CCN(Cc2ccccc2)C1)S(=O)(=O)NCCc1c(-c2cccs2)n[nH]c1-c1cnccn1 | 3 | 7 | inhibition [8]: 81%; solubility [6]: 79 µg/mL (≈ 151 µM); inhibition at 3 µM (Oryctolagus cuniculus [9]): 51%
COc1cccc(-c2[nH]nc(-c3cccs3)c2CCNS(=O)(=O)N(C)[C@@H]2CCN(Cc3ccccc3)C2)c1 | 1.5 | 4.3 | inhibition [8]: 51%; inhibition at 10 µM (Oryctolagus cuniculus [5]): 43%
CCCCCc1ccc(S(=O)(=O)NCCc2c(-c3cccs3)n[nH]c2-c2cccs2)cc1 | 4 | 19 | inhibition [4]: 35%; inhibition at 10 µM (Oryctolagus cuniculus [5]): 25%; solubility [6]: 0.2 µg/mL (≈ 0.412 µM)
CCCCCc1ccc(S(=O)(=O)NCCc2c(-c3ccc(OC)cc3)n[nH]c2CC(C)C)cc1 | 305 |  | 
CCCCCc1ccc(S(=O)(=O)NCCc2c(-c3cccs3)n[nH]c2-c2cnccn2)cc1 | 12 | 65 | 
CCN([C@@H]1CCN([C@@H](C)c2ccccc2)C1)S(=O)(=O)NCCc1c(-c2cccs2)n[nH]c1-c1cnccn1 | 1.8 | 2.4 | inhibition at 1 µM (Oryctolagus cuniculus [10]): 39%; IC50 [11]: 5500 nM; inhibition [4]: 32%; solubility [6]: 76 µg/mL (≈ 138 µM); inhibition at 3 µM (Oryctolagus cuniculus [9]): 69%; inhibition [7]: 94%
CN([C@@H]1CCN(Cc2ccccc2)C1)S(=O)(=O)NCCc1c(-c2cccs2)n[nH]c1-c1ccccc1 | 3.6 | 7.5 | inhibition at 10 µM (Oryctolagus cuniculus [5]): 44%
CN([C@@H]1CCN(Cc2ccccc2)C1)S(=O)(=O)NCCc1c(-c2cccs2)n[nH]c1-c1cccs1 | 2 | 7 | inhibition [8]: 79%; inhibition at 3 µM (Oryctolagus cuniculus [9]): 40%
CCN([C@@H]1CCN(C(C)c2ccc(F)cc2)C1)S(=O)(=O)NCCc1c(-c2cccs2)n[nH]c1-c1cnccn1 (some centres undefined) |  |  | inhibition at 1 µM (Oryctolagus cuniculus [10]): 45%; inhibition [4]: 16%; solubility [6]: 129 µg/mL (≈ 226 µM); inhibition at 3 µM (Oryctolagus cuniculus [9]): 73%
CCN([C@@H]1CCN(C(C)(C)c2ccccc2)C1)S(=O)(=O)NCCc1c(-c2cccs2)n[nH]c1-c1cnccn1 | 2.7 | 4.1 | inhibition [3]: 60%; inhibition [4]: 35%; inhibition at 10 µM (Oryctolagus cuniculus [5]): 63%; solubility [6]: 71 µg/mL (≈ 125 µM); inhibition [7]: 83%
